Experimental findings from patent publication EP3057951B1, “METHYLENE LINKED QUINOLINYL MODULATORS OF ROR-GAMMA-T” (Janssen Pharmaceutica NV, priority 2013, dated 2015) are described below.

Structures are written as SMILES. Where a name gives a salt, the structure may show the parent alone. Read-outs that look alike come from different tables or passages of the source.

For orientation: Kd means the free concentration of one partner at which half of the binding sites on the other are occupied at equilibrium, for simple one-to-one binding. As a reminder, the IC50 is the concentration at which inhibition is half-maximal. A high value points to lower potency.

For assay [1], the target named is T1, wild type human RORγt ligand binding domain (RORyt LBD) (Homo sapiens, UniProt P51449).
T1 construct: His-tag (N); TurboTEV protease cleavage site (ENLYFQG) (N); made in house; host or cells: E. coli (pHIS1, modified pET vector)
T1 sequence (P51449 258-518): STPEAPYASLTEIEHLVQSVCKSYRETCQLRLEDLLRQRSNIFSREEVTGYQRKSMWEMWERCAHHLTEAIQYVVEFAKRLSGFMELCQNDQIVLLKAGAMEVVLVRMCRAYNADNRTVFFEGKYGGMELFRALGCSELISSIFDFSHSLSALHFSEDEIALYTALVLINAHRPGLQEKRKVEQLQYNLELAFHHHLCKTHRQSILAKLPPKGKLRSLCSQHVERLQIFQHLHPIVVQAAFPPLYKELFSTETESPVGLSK
The experiment in a line: RORγt ThermoFluor assay (thermal shift, binding affinity KD).

The target in assay [2] is T2, wild type human RORγt LBD (Homo sapiens, UniProt P51449).
T2 construct: expressed in transfected cells; host or cells: HEK293T
T2 sequence (P51449 258-518): T1 sequence (P51449 258-518)
The experiment in a line: RORγt (LBD) Reporter Assay (GAL4-luciferase, HEK293T cells). The format is cell-based. Conditions: for inhibition at 6 µM: HEK-293T, read-out: RORγt (LBD) Reporter Assay, % inhibition @ 6 µM, 6 µM compound concentration. For orientation: Reporter assays use an easily measured gene product as a stand-in for the process of interest.

Setting [3] is: HEK293T cells, value after the comma with ∼, > or < could not be included in the average.

As to `Cn1cncc1C(O)(c1ccc(C#N)cc1)c1ccc2nc(C(F)(F)F)c(Cc3ccccc3)c(C#N)c2c1` (centres unmarked) [Example 104, 3-Benzyl-6-((4-cyanophenyl)(hydroxy)(1-methyl-1H-imidazol-5-yl)methyl)-2-(trifluoromethyl)quinoline-4-carbonitrile•TFA], in assay [1], the Kd is 6.3 nM. In assay [2] (setting [3]), it took 19 nM to reach half-maximal inhibition (IC50). Also, in assay [2], the inhibition at 6 µM stood at 82%.

In the case of `Cn1cncc1C(O)(c1ccc(C(F)(F)F)nc1)c1ccc2nc(C(F)(F)F)c(Cc3ccccc3)c(Cl)c2c1` (centres unmarked) [Example 105, (3-Benzyl-4-chloro-2-(trifluoromethyl)quinolin-6-yl)(1-methyl-1H-imidazol-5-yl)(6-(trifluoromethyl)pyridin-3-yl)methanol•TFA], in assay [1], the Kd is 5.6 nM. The molecule also gave an IC50 in assay [2] (setting [3]) of over 6000 nM. For the same molecule, the inhibition at 6 µM in assay [2] was found to be 38%.

Regarding `COc1c(Cc2ccccc2)c(C(F)(F)F)nc2ccc(C(O)(c3ccc(C(F)(F)F)nc3)c3cncn3C)cc12` (centres unmarked) [Example 106a, (3-Benzyl-4-methoxy-2-(trifluoromethyl)quinolin-6-yl)(1-methyl-1H-imidazol-5-yl)(6-(trifluoromethyl)pyridin-3-yl)methanol•TFA], in assay [1], the Kd was determined as 48 nM. The inhibition at 6 µM in assay [2] worked out at 84%.

`Cn1cncc1C(O)(c1ccc(C(F)(F)F)nc1)c1ccc2nc(C(F)(F)F)c(Cc3ccccc3)c(O)c2c1` (centres unmarked) [Example 107, 3-Benzyl-6-(hydroxy(1-methyl-1H-imidazol-5-yl)(6-(trifluoromethyl)pyridin-3-yl)methyl)-2-(trifluoromethyl)quinolin-4-ol•TFA]: in assay [1], the Kd turned out to be 3400 nM. The molecule also came in with an IC50 in assay [2] (setting [3]) of 5600 nM. The inhibition at 6 µM in assay [2] worked out at 57%.

As to `Cn1cncc1C(O)(c1ccc(C(F)(F)F)nc1)c1ccc2nc(C(F)(F)F)c(Cc3ccccc3)c(C#N)c2c1` (centres unmarked) [Example 108a, 3-Benzyl-6-(hydroxy(1-methyl-1H-imidazol-5-yl)(6-(trifluoromethyl)pyridin-3-yl)methyl)-2-(trifluoromethyl)quinoline-4-carbonitrile•TFA], in assay [1], the Kd was 4.4 nM. Further, in assay [2] (setting [3]), the IC50 was 30 nM. Further, in assay [2], the inhibition at 6 µM amounted to 90%.

Take `Cn1cncc1C(O)(c1ccc(C(F)(F)F)nc1)c1ccc2nc(Cl)c(Cc3ccccc3)c(Cl)c2c1` (centres unmarked) [Example 109, (3-Benzyl-2,4-dichloroquinolin-6-yl)(1-methyl-1H-imidazol-5-yl)(6-(trifluoromethyl)pyridin-3-yl)methanol•TFA]: the Kd in assay [1] turned out to be 14 nM. In assay [2] (setting [3]), this molecule showed an IC50 of about 4000 nM. Also, the inhibition at 6 µM in assay [2] worked out at 80%.

In the case of `Cn1cc(-c2nc3ccc(C(O)(c4ccc(C(F)(F)F)nc4)c4cncn4C)cc3c(C#N)c2Cc2ccccc2)cn1` (centres unmarked) [Example 112a, 3-Benzyl-6-(hydroxy(1-methyl-1H-imidazol-5-yl)(6-(trifluoromethyl)pyridin-3-yl)methyl)-2-(1-methyl-1H-pyrazol-4-yl)quinoline-4-carbonitrile•TFA], the Kd in assay [1] came to 6600 nM. In addition, the IC50 in assay [2] (setting [3]) was found to be 1000 nM. Besides, the inhibition at 6 µM in assay [2] was determined as 91%.

As for `COc1nc2ccc(C(O)(c3cnnn3C)C3CN(C(=O)OC(C)(C)C)C3)cc2c(Cl)c1Cc1ccc(C(F)(F)F)cc1` (centres unmarked) [Example 123, tert-Butyl-3-((4-chloro-2-methoxy-3-(4-(trifluoromethyl)benzyl)quinolin-6-yl)(hydroxy)(1-methyl-1H-1,2,3-triazol-5-yl)methyl)azetidine-1-carboxylate], in assay [1], the Kd was determined as 5.2 nM. Further, in assay [2] (HEK293T cells), the IC50 was 71 nM and the inhibition at 6 µM came out at 101%.

For the molecule `COc1nc2ccc(C(O)(c3cnnn3C)C3CNC3)cc2c(Cl)c1Cc1ccc(C(F)(F)F)cc1` (centres unmarked) [Example 124, Azetidin-3-yl(4-chloro-2-methoxy-3-(4-(trifluoromethyl)benzyl)quinolin-6-yl)(1-methyl-1H-1,2,3-triazol-5-yl)methanol], the Kd in assay [1] came out at 240 nM. For the same molecule, in assay [2] (HEK293T cells), the IC50 worked out at 670 nM and the inhibition at 6 µM was determined as 93%.

`COc1nc2ccc(C(O)(c3ccc(C)nc3C)C3CN(C(=O)OC(C)(C)C)C3)cc2c(Cl)c1Cc1ccc(C(F)(F)F)cc1` (centres unmarked) [Example 125, tert-Butyl-3-((4-chloro-2-methoxy-3-(4-(trifluoromethyl)benzyl)quinolin-6-yl)(2,6-dimethylpyridin-3-yl)(hydroxy)methyl)azetidine-1-carboxylate]: in assay [1], the Kd turned out to be 9.4 nM. Moreover, in assay [2] (HEK293T cells), it took 290 nM to reach half-maximal inhibition (IC50) and the inhibition at 6 µM is 100%.

In the case of `COCCN(C)c1nc2ccc(C(O)(c3ccc(Cl)cc3)c3cncn3C)cc2c(Cl)c1Cc1ccc(-n2cccn2)cc1` (centres unmarked) [Example 127, {4-Chloro-2-[(2-methoxyethyl)(methyl)amino]-3-[4-(1H-pyrazol-1-yl)benzyl]quinolin-6-yl}(4-chlorophenyl)(1-methyl-1H-imidazol-5-yl)methanol], in assay [1], the Kd turned out to be 350 nM. In assay [2] (HEK293T cells), the IC50 was 240 nM and the inhibition at 6 µM was determined as 101%.

For the molecule `CON(C)c1nc2ccc(C(O)(c3ccc(C(F)(F)F)nc3)c3cncn3C)cc2c(N(C)OC)c1Cc1ccc(-n2cccn2)cc1` (centres unmarked) [Example 129, {2,4-Bis[methoxy(methyl)amino]-3-[4-(1H-pyrazol-1-yl)benzyl]quinolin-6-yl}(1-methyl-1H-imidazol-5-yl)[6-(trifluoromethyl)pyridin-3-yl]methanol], in assay [1], the Kd stood at 1700 nM. For the same molecule, in assay [2] (HEK293T cells), the IC50 turned out to be 1500 nM and the inhibition at 6 µM was 110%.

Regarding `Cn1cncc1C(O)(c1ccc2nc(Cl)c(Cc3ccc(-n4cccn4)cc3)c(Cl)c2c1)c1ncccn1` (centres unmarked) [Example 130, {2,4-Dichloro-3-[4-(1H-pyrazol-1-yl)benzyl]quinolin-6-yl}(1-methyl-1H-imidazol-5-yl)pyrimidin-2-ylmethanol.TFA], the Kd in assay [1] is 640 nM. Besides, in assay [2] (HEK293T cells), the IC50 is 510 nM and the inhibition at 6 µM was determined as 94%.

Take `CN(C)c1nc2ccc(C(O)(c3ccc(C(F)(F)F)nc3)c3cncn3C)cc2c(Cl)c1Cc1ccc(-n2cccn2)cc1` (centres unmarked) [Example 132, {4-Chloro-2-(dimethylamino)-3-[4-(1H-pyrazol-1-yl)benzyl]quinolin-6-yl}(1-methyl-1H-imidazol-5-yl)[6-(trifluoromethyl)pyridin-3-yl]methanol]: the Kd in assay [1] is 36 nM. Also, in assay [2] (HEK293T cells), the IC50 came to 45 nM and the inhibition at 6 µM was 108%.

Consider `Cn1cncc1C(O)(c1ccc(C(F)(F)F)nc1)c1ccc2nc(N3CC(F)(F)C3)c(Cc3ccc(-n4cccn4)cc3)c(Cl)c2c1` (centres unmarked) [Example 135a, {4-Chloro-2-(3,3-difluoroazetidin-1-yl)-3-[4-(1H-pyrazol-1-yl)benzyl]quinolin-6-yl}(1-methyl-1H-imidazol-5-yl)[6-(trifluoromethyl)pyridin-3-yl] methanol.TFA], for which, in assay [1], the Kd is 36 nM. Further, in assay [2] (HEK293T cells), the concentration for half-maximal inhibition (IC50) turned out to be 270 nM and the inhibition at 6 µM was found to be 97%.

With `Cc1cc(C(O)(c2ccc(Cl)cc2)c2cncn2C)cc2c(Cl)c(Cc3ccc(-n4cccn4)cc3)c(N3CCC3)nc12` (centres unmarked) [Example 136a], the Kd in assay [1] was 150 nM. Besides, in assay [2] (HEK293T cells), the IC50 was determined as 140 nM and the inhibition at 6 µM amounted to 94%.

Take `Cc1cc(C(O)(c2ccc(C(F)(F)F)nc2)c2cncn2C)cc2c(Cl)c(Cc3ccc(-n4cccn4)cc3)c(N3CCC3)nc12` (centres unmarked) [Example 137a, {2-Azetidin-1-yl-4-chloro-8-methyl-3-[4-(1H-pyrazol-1-yl)benzyl]quinolin-6-yl}(1-methyl-1H-imidazol-5-yl)[6-(trifluoromethyl)pyridin-3-yl]methanol]: the Kd in assay [1] was determined as 9 nM. For the same molecule, in assay [2] (HEK293T cells), the midpoint of inhibition, the IC50, lay at 170 nM and the inhibition at 6 µM came to 97%.

As for `Cn1cncc1C(O)(c1ccc(Cl)cc1)c1ccc2nc(N3CCC3)c(Cc3ccc(-n4cccn4)cc3)c(Cl)c2c1` (centres unmarked) [Example 138a, {2-Azetidin-1-yl-4-chloro-3-[4-(1H-pyrazol-1-yl)benzyl]quinolin-6-yl}(4-chlorophenyl)(1-methyl-1H-imidazol-5-yl)methanol], in assay [1], the dissociation constant (Kd) worked out at 130 nM. For the same molecule, in assay [2] (HEK293T cells), the IC50 worked out at 130 nM and the inhibition at 6 µM stood at 98%.

Turning to `Cc1ccc(C(O)(c2ccc3nc(Cl)c(Cc4ccc(C(F)(F)F)cc4)c(Cl)c3c2)c2cnnn2C)c(C)n1` (centres unmarked) [Example 139], the Kd in assay [1] was determined as 0.14 nM. In addition, in assay [2] (HEK293T cells), the IC50 is 20 nM and the inhibition at 6 µM turned out to be 98%.

For the molecule `Cc1ccc(C(O)(c2ccc3nc(N4CCC4)c(Cc4ccc(C(F)(F)F)cc4)c(Cl)c3c2)c2cnnn2C)c(C)n1` (centres unmarked) [Example 140a, {2-Azetidin-1-yl-4-chloro-3-[4-(trifluoromethyl)benzyl]quinolin-6-yl}(2,6-dimethylpyridin-3-yl)(1-methyl-1H-1,2,3-triazol-5-yl)methanol], the Kd in assay [1] is 0.19 nM. Besides, in assay [2] (HEK293T cells), the IC50 turned out to be 22 nM and the inhibition at 6 µM turned out to be 99%.

With `Cc1ccc(C(O)(c2ccc3nc(N4CCC4)c(Cc4ccc(-n5cccn5)cc4)c(Cl)c3c2)c2cnnn2C)c(C)n1` (centres unmarked) [Example 141a, {2-Azetidin-1-yl-4-chloro-3-[4-(1H-pyrazol-1-yl)benzyl]quinolin-6-yl}(2,6-dimethylpyridin-3-yl)(1-methyl-1H-1,2,3-triazol-5-yl)methanol], the Kd in assay [1] worked out at 11000 nM. Besides, in assay [2] (HEK293T cells), the IC50 was over 6000 nM and the inhibition at 6 µM is 42%.
